Experimental data published in US11230543B2, “Biaryl monobactam compounds and methods of use thereof for the treatment of bacterial infections” (priority 2015, dated 2022).
Where a name gives a salt, the structure may show the parent alone.

Assays:
[1] = test system: Klebsiella pneumoniae expressing KPC-1 (CL6569); experiment: Antibiotic activity: growth inhibitory concentration (OD600), Klebsiella pneumoniae CL6569; type: cell-based; details: lowest concentration inhibiting 95% of bacterial growth; in the presence of β lactamase inhibitor Relebactam 4 μg/mL; 35±2° C. for 22 hours; tested range 100 μM to 0.098 μM
Protocol: (§1) Antibiotic Activity: Determination of Growth Inhibitory Concentration
(§2) The concentrations of compounds required to inhibit the growth of various strains of bacteria were determined in an assay that assessed bacterial growth by measuring optical density at 600 nm (OD600). The bacterial strains tested included the clinical strains Escherichia coli expressing NDM-1 (CLB30016), Klebsiella pneumoniae expressing KPC-1 (CL6569), Acinetobacter baumannii expressing TEM-1, AmpC, and Oxa-24/40 (CL6188) and Pseudomonas aeruginosa expressing AmpC (CL5701). All compounds were tested in the presence of a β lactamase inhibitor (BLi, Relebactam) in 384-well microplates. The clinical strains were stored as frozen single use stocks, thawed and diluted into 1.1× cation-adjusted Mueller-Hinton II broth to achieve approximately 2×10^5 CFU/mL. Test compounds were dissolved in DMSO and diluted 1:50 in the assay, resulting in a final concentration range of 100 μM to 0.098 μM. On the day of the assay, 1 μL of test compound was added to the plate followed by 4 μL of 50 μg/mL BLi in MOPS buffer and 45 μL of diluted bacteria. Plates were centrifuged at 1000 rpm for 30 seconds, shaken at approximately 800 rpm for 1 minute, and incubated at 35±2° C. for 22 hours. The concentration of BLi used in the assay was 4 μg/mL. At the end of the incubation, absorbance at 600 nm was determined using a spectrophotometer. Inhibition was quantitated by identifying the lowest concentration of test compound that was required to inhibit 95% of the growth of the bacteria. The results for Examples 1-126 are reported in Table I, expressed as the concentration of compound that inhibited 95% of bacterial growth (Minimum Inhibitory Threshold Concentration; MITC95).

[2] = test system: Pseudomonas aeruginosa expressing AmpC (CL5701); experiment: Antibiotic activity: growth inhibitory concentration (OD600), Pseudomonas aeruginosa CL5701; type: cell-based; details: lowest concentration inhibiting 95% of bacterial growth; in the presence of β lactamase inhibitor Relebactam 4 μg/mL; 35±2° C. for 22 hours; tested range 100 μM to 0.098 μM
Protocol: as §1, §2

## Cc1cc(-c2ccc(OC[C@H](O/N=C(\C(=O)N[C@@H]3C(=O)N(OS(=O)(=O)O)C3(C)C)c3csc(N)n3)C(=O)O)cc2)n(CCCN)[n+]1C.O=C([O-])C(F)(F)F [Example 21, 1-(3-aminopropyl)-5-(4-((S)-2-((((Z)-1-(2-aminothiazol-4-yl)-2-(((S)-2,2-dimethyl-4-oxo-1-(sulfooxy)azetidin-3-yl)amino)-2-oxo-ethylidene)amino)oxy)-2-carboxyethoxy)phenyl)-2,3-dimethyl-1H-pyrazol-2-ium 2,2,2-trifluoroacetate]
[1]
  KP_CL6569 MITC95: 0.3906 µM
[2]
  PA_CL5701 MITC95: 12.5 µM

## CC1(C)[C@H](NC(=O)/C(=N\O[C@@H](COc2ccc(-c3cnc(NCCN)[n+](CC4CNC4)c3)cc2)C(=O)O)c2csc(N)n2)C(=O)N1OS(=O)(=O)[O-] [Example 99, (S)-3-((Z)-2-(((S)-2-(4-(2-((2-aminoethyl)amino)-1-(azetidin-3-ylmethyl)pyrimidin-1-ium-5-yl)phenoxy)-1-carboxyethoxy)imino)-2-(2-aminothiazol-4-yl)acetamido)-2,2-dimethyl-4-oxoazetidin-1-yl sulfate]
[1]
  KP_CL6569 MITC95: 0.1953 µM
[2]
  PA_CL5701 MITC95: 3.125 µM

## C[n+]1cc(-c2ccc(NCC(O/N=C(\C(=O)N[C@@H]3C(=O)N(OS(=O)(=O)[O-])C3(C)C)c3csc(N)n3)C(=O)O)cc2)cn1CCCN (stereo partly drawn) [Example 91, (3S)-3-(2-((2-((4-(1-(3-aminopropyl)-2-methyl-1H-pyrazol-2-ium-4-yl)phenyl)amino)-1-carboxyethoxy)imino)-2-(2-aminothiazol-4-yl)acetamido)-2,2-dimethyl-4-oxoazetidin-1-yl sulfate]
[1]
  KP_CL6569 MITC95: 0.7813 µM
[2]
  PA_CL5701 MITC95: 12.5 µM

## C[n+]1cc(-c2ccc(CCC(O/N=C(\C(=O)N[C@@H]3C(=O)N(OS(=O)(=O)[O-])C3(C)C)c3csc(N)n3)C(=O)O)cc2)cn1CCCN (single isomer, unassigned) [Example 93]
[1]
  KP_CL6569 MITC95: 0.1953 µM
[2]
  PA_CL5701 MITC95: 6.25 µM

## C[n+]1cc(-c2ccc(OC[C@H](O/N=C(\C(=O)N[C@@H]3C(=O)N(OS(=O)(=O)[O-])C3(C)C)c3csc(N)n3)C(=O)O)cc2)ccc1NCCN [Example 66, (S)-3-((Z)-2-(((S)-2-(4-(6-((2-aminoethyl)amino)-1-methylpyridin-1-ium-3-yl)phenoxy)-1-carboxyethoxy)imino)-2-(2-aminothiazol-4-yl)acetamido)-2,2-dimethyl-4-oxoazetidin-1-yl sulfate]
[1]
  KP_CL6569 MITC95: 0.2135 µM
[2]
  PA_CL5701 MITC95: 1.708 µM

## C[C@H]1[C@H](NC(=O)/C(=N\O[C@@H](COc2ccc(-c3cn(CCCN)[n+](C)c3)cc2)C(=O)O)c2csc(N)n2)C(=O)N1S(=O)(=O)[O-] [Example 7, (2S,3S)-3-((Z)-2-(((S)-2-(4-(1-(3-aminopropyl)-2-methyl-1H-pyrazol-2-ium-4-yl)phenoxy)-1-carboxyethoxy)imino)-2-(2-aminothiazol-4-yl)acetamido)-2-methyl-4-oxoazetidine-1-sulfonate]
[1]
  KP_CL6569 MITC95: 1.563 µM
[2]
  PA_CL5701 MITC95: 12.5 µM

## C[n+]1cc(-c2ccc(OC[C@H](O/N=C(\C(=O)N[C@@H]3C(=O)N(OS(=O)(=O)[O-])C3(C)C)c3nsc(N)n3)C(=O)O)cc2)cn1CCCN [Example 12, (S)-3-((Z)-2-(5-Amino-1,2,4-thiadiazol-3-yl)-2-(((S)-2-(4-(1-(3-aminopropyl)-2-methyl-1H-pyrazol-2-ium-4-yl)phenoxy)-1-carboxyethoxy)imino)acetamido)-2,2-dimethyl-4-oxoazetidin-1-yl sulfate]
[1]
  KP_CL6569 MITC95: 0.3906 µM
[2]
  PA_CL5701 MITC95: 3.125 µM

## CC1(C)[C@H](NC(=O)/C(=N\O[C@@H](COc2ccc(Oc3cc[n+](CCCN)cc3)nc2)C(=O)O)c2csc(N)n2)C(=O)N1OS(=O)(=O)O.O=C([O-])C(F)(F)F [Example 34, 1-(3-aminopropyl)-4-((5-((S)-2-((((Z)-1-(2-aminothiazol-4-yl)-2-(((S)-2,2-dimethyl-4-oxo-1-(sulfooxy)azetidin-3-yl)amino)-2-oxoethylidene)amino)oxy)-2-carboxyethoxy)pyridin-2-yl)oxy)pyridin-1-ium 2,2,2-trifluoroacetate]
[1]
  KP_CL6569 MITC95: 0.78 µM
[2]
  PA_CL5701 MITC95: 25 µM

## C[n+]1cc(-c2ccc(OC[C@H](O/N=C(\C(=O)N[C@@H]3C(=O)N(OS(=O)(=O)[O-])C3(C)C)c3csc(N)n3)C(=O)O)nn2)cn1CCCN [Example 106, (S)-3-((Z)-2-(((S)-2-((6-(1-(3-aminopropyl)-2-methyl-1H-pyrazol-2-ium-4-yl)pyridazin-3-yl)oxy)-1-carboxyethoxy)imino)-2-(2-aminothiazol-4-yl)acetamido)-2,2-dimethyl-4-oxoazetidin-1-yl sulfate]
[1]
  KP_CL6569 MITC95: 50 µM
[2]
  PA_CL5701 MITC95: 100 µM

## C[n+]1nc(NCCCN)ccc1-c1ccc(OC[C@H](O/N=C(\C(=O)N[C@@H]2C(=O)N(OS(=O)(=O)[O-])C2(C)C)c2csc(N)n2)C(=O)O)cc1 [Example 122, (S)-3-((Z)-2-(((S)-2-(4-(3-((3-aminopropyl)amino)-1-methylpyridazin-1-ium-6-yl)phenoxy)-1-carboxyethoxy)imino)-2-(2-aminothiazol-4-yl)acetamido)-2,2-dimethyl-4-oxoazetidin-1-yl sulfate]
[1]
  KP_CL6569 MITC95: 0.1953 µM
[2]
  PA_CL5701 MITC95: 3.125 µM

## CCOC(=O)[C@H](COc1ccc(-c2cn(CCCN)c(=N)n2C)cc1)O/N=C(\C(=O)N[C@@H]1C(=O)N(OS(=O)(=O)O)C1(C)C)c1csc(N)n1 [Example 116, Ethyl (S)-3-(4-(1-(3-aminopropyl)-2-imino-3-methyl-2,3-dihydro-1H-imidazol-4-yl)phenoxy)-2-((((Z)-1-(2-aminothiazol-4-yl)-2-(((S)-2,2-dimethyl-4-oxo-1-(sulfooxy)azetidin-3-yl)amino)-2-oxoethylidene)amino)oxy)propanoate]
[1]
  KP_CL6569 MITC95: 6.25 µM
[2]
  PA_CL5701 MITC95: 50 µM

## C[n+]1cc(-c2ccc(OCC(O/N=C(\C(=O)N[C@@H]3C(=O)N(OS(=O)(=O)O)C3(C)C)c3csc(N)n3)P(=O)(O)O)cc2)cn1CCCN (stereo partly drawn) [Example 40, (3S)-3-((Z)-2-((2-(4-(1-(3-aminopropyl)-2-methyl-1H-pyrazol-2-ium-4-yl)phenoxy)-1-phosphonoethoxy)imino)-2-(2-aminothiazol-4-yl)acetamido)-2,2-dimethyl-4-oxoazetidin-1-yl sulfate]
[1]
  KP_CL6569 MITC95: 3.125 µM
[2]
  PA_CL5701 MITC95: 50 µM

## C[n+]1ccc(-c2ccc(OC[C@H](O/N=C(\C(=O)N[C@@H]3C(=O)N(OS(=O)(=O)[O-])C3(C)C)c3csc(N)n3)C(=O)O)cc2)cc1NCCN [Example 62, (S)-3-((Z)-2-(((S)-2-(4-(2-((2-aminoethyl)amino)-1-methylpyridin-1-ium-4-yl)phenoxy)-1-carboxyethoxy)imino)-2-(2-aminothiazol-4-yl)acetamido)-2,2-dimethyl-4-oxoazetidin-1-yl sulfate]
[1]
  KP_CL6569 MITC95: 0.36 µM
[2]
  PA_CL5701 MITC95: 5.8 µM

## CC1(C)[C@H](NC(=O)/C(=N\O[C@@H](COc2ccc(-c3cn(CCCN)[n+](CCN)c3)cc2)C(=O)O)c2csc(N)n2)C(=O)N1OS(=O)(=O)[O-] [Example 100, (S)-3-((Z)-2-(((S)-2-(4-(2-(2-aminoethyl)-1-(3-aminopropyl)-1H-pyrazol-2-ium-4-yl)phenoxy)-1-carboxyethoxy)imino)-2-(2-aminothiazol-4-yl)acetamido)-2,2-dimethyl-4-oxoazetidin-1-yl sulfate]
[1]
  KP_CL6569 MITC95: 0.39 µM
[2]
  PA_CL5701 MITC95: 3.125 µM

## C[n+]1cc(-c2ccc(OC[C@H](O/N=C(\C(=O)N[C@@H]3C(=O)N(OS(=O)(=O)O)C3(C)C)c3csc(N)n3)C(=O)O)cc2)ccc1CCCN [Example 88, (S)-3-((Z)-2-(((S)-2-(4-(6-(3-aminopropyl)-1-methylpyridin-1-ium-3-yl)phenoxy)-1-carboxyethoxy)imino)-2-(2-aminothiazol-4-yl)acetamido)-2,2-dimethyl-4-oxoazetidin-1-yl sulfate]
[1]
  KP_CL6569 MITC95: 0.3906 µM
[2]
  PA_CL5701 MITC95: 3.125 µM

## CC1[C@H](NC(=O)/C(=N\O[C@@H](COc2ccc(-c3cnn(CCCN)c3)cc2)C(=O)O)c2csc(N)n2)C(=O)N1S(=O)(=O)O (stereo in doubt) [Example 8, (S)-3-(4-(1-(3-aminopropyl)-1H-pyrazol-4-yl)phenoxy)-2-((((Z)-1-(2-aminothiazol-4-yl)-2-(((2R,3S)-2-methyl-4-oxo-1-sulfoazetidin-3-yl)amino)-2-oxoethylidene)amino)oxy)propanoic acid]
[1]
  KP_CL6569 MITC95: 3.125 µM
[2]
  PA_CL5701 MITC95: 25 µM
